5 molecules from US20210253562A1, “ACYLSUFONAMIDE COMPOUNDS USEFUL AS EP3 RECEPTOR ANTAGONISTS” (Janssen Pharmaceutica NV, priority 2018, published 2021) can be followed below.

Broadly, the Ki is a measure of affinity in units of concentration, obtained from inhibition or displacement. Lower therefore signals tighter binding. For orientation: IC50 means the concentration needed to halve the response being measured.

Assay [1] has as its target T1, EP3 membrane (EP3 receptor) (Homo sapiens, UniProt P43115).
T1 construct: purchased Millipore HTS092M
T1 sequence (P43115 1-390): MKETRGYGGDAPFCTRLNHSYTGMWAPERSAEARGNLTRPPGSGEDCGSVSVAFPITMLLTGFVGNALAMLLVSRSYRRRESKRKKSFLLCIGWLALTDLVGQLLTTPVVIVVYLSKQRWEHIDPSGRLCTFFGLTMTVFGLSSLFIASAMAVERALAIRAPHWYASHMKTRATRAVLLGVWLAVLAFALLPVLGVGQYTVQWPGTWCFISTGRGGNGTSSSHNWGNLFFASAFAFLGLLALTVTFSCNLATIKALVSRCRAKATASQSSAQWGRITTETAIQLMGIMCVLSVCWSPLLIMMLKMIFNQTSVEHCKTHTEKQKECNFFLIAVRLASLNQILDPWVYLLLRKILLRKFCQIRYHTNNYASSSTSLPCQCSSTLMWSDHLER
Description: [3H]-PGE2 binding; EP3 competition binding (SPA). The method, boiled down: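 SPA competition at room temperature, 2 h: EP3 membranes 2 μg/well, 2 nM [3H]-PGE2, 0.1% DMSO, in Tris/MgCl2/EDTA buffer pH 7.4. Compounds in 1:3 serial dilution; scintillation read; Ki by one-site nonlinear fit.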

For assay [2], the target named is T2, CHO cells over-expressing the EP3 receptor (Homo sapiens, UniProt P43115).
T2 construct: expressed in transfected cells; host or cells: CHO cells
T2 sequence (P43115 1-390): T1 sequence (P43115 1-390)
Description: CHO cell cAMP assay; EP3 cAMP antagonist dose response (sulprostone reference), HTRF. It counts as cell-based. The note with it: sulprostone 700 nM (EC80) and FSK 2 μM (EC70); read-out: CHO_cAMP IC50. The method in brief:
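EP3-overexpressing CHO cells pre-incubated with test compound, then stimulated 30 min at 37 °C with FSK (2 μM, EC70) plus sulprostone (700 nM, EC80); antagonism seen as restored cAMP. cAMP measured by HTRF 665/615 ratio, converted via on-plate standard curve. IC50 from Hill fit of 11-point dosing.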
A general note: Changes in cAMP serve as a functional read-out for many G protein-coupled receptors.

The test system of the next assay is male Sprague Dawley rats. Description: IV infused EP3 antagonists on circulating insulin and glucose in the sulprostone infusion IVGTT model. The format is in vivo, rat. The note with it: SD rats, 2.1 mg/kg bolus followed by 3.09 mg/kg/hour infusion. The text has this:
Biological Example 3: IV Infused EP3 Antagonists on Circulating Insulin and Glucose in the Sulprostone Infusion IVGTT Model
Jugular vein and carotid artery cannulated male Sprague Dawley rats (˜250 g, available from Charles River) were housed one rat per suspended cage in a temperature-controlled room with 12-hour light/dark cycle. The rats were allowed ad libitum access to water and maintained on a regular diet. Animals were acclimated for minimum 5 days prior to the start of the experiment. Experimental procedures were carried out in accordance with institutional standards for animal care and were approved by the institute's animal care and use committee.
A blood sample for insulin and blood chemistry was collected at 20 min (t=−20) prior to the start of dosing with sulprostone and/or test compound (EP3 antagonist). […]
Blood samples from all animals were collected into Heparin treated tubes. Background was measured via a glucometer at the 0 and 2 min time points to ensure that the animal received the glucose bolus. Plasma insulin was measured via a Meso Scale Discovery metabolic assay (available from Meso Scale). Plasma glucose, free fatty acid (FFA), triglycerides, cholesterol and ketones were measured on an OLYMPUS AU400E chemistry analyzer. Observations on animal health were recorded throughout the procedure. […]

Structures are written as SMILES.

The molecule `O=C(NC/C=C1\CCCc2cnn(Cc3ccc(Cl)cc3Cl)c21)NS(=O)(=O)c1ccc(Cl)cc1` [Compound #4, (E)-4-chloro-N-((2-(1-(2,4-dichlorobenzyl)-1,4,5,6-tetrahydro-7H-indazol-7-ylidene)ethyl)carbamoyl)benzenesulfonamide] returned a Ki in assay [1] of 4 nM. Moreover, the IC50 in assay [2] is 12 nM. Further, the “suppression of glucose stimulated insulin secretion (GSIS) by sulprostone” value with male Sprague Dawley rats is reported as “reverse suppression of glucose stimulated insulin secretion (GSIS) by sulprostone”.
The molecule `O=C(NC/C(F)=C1\COCc2cnn(-c3ccc(C(F)(F)F)cc3)c21)NS(=O)(=O)c1ccc(Cl)cc1` [Compound #118, (E)-4-chloro-N-((2-fluoro-2-(1-(4-(trifluoromethyl)phenyl)-1,4-dihydropyrano[4,3-c]pyrazol-7(6H)-ylidene)ethyl)carbamoyl)benzenesulfonamide] showed an inhibition constant Ki in assay [1] of 2000 nM. Further, the IC50 in assay [2] stood at 16000 nM.
In the case of `COc1ccc(S(=O)(=O)NC(=O)NC/C(F)=C2\CCCc3cnn(Cc4ccc(Cl)cc4Cl)c32)cc1Cl` [Compound #143, (Z)-3-chloro-N-((2-(1-(2,4-dichlorobenzyl)-1,4,5,6-tetrahydro-7H-indazol-7-ylidene)-2-fluoroethyl)carbamoyl)-4-methoxybenzenesulfonamide], the Ki in assay [1] came out at 3 nM. The IC50 in assay [2] was found to be 18 nM.
The molecule `CC(C)S(=O)(=O)NC(=O)CC/C=C1\CCCc2cnn(Cc3ccc(Cl)cc3Cl)c21` [Compound #69, (E)-4-(1-(2,4-dichlorobenzyl)-1,4,5,6-tetrahydro-7H-indazol-7-ylidene)-N-(isopropylsulfonyl)butanamide] came in with a Ki in assay [1] of 179 nM. For the same molecule, in assay [2], the IC50 was found to be 118 nM.
Turning to `COc1ccc(Cl)cc1S(=O)(=O)NC(=O)NC/C(F)=C1\CCCc2cnn(-c3ccc4ccccc4c3)c21` [Compound #115, (Z)-5-chloro-N-((2-fluoro-2-(1-(naphthalen-2-yl)-1,4,5,6-tetrahydro-7H-indazol-7-ylidene)ethyl)carbamoyl)-2-methoxybenzenesulfonamide], the Ki in assay [1] came to 1100 nM. Also, in assay [2], the IC50 is 4200 nM.
